# Legend:
# [1] = target: recombinant His-tagged HDAC2 (Homo sapiens, UniProt Q92769); assay type: binding; conditions: probe 25 µM, HDAC2 1.25 µM, Trichostatin A 125 µM (5-fold molar excess), 24 h preincubation, 254 nm UV
# recombinant human HDAC3 = recombinant human HDAC3 (Homo sapiens, UniProt O15379); assay: HDAC3 fluorogenic inhibition assay; conditions: read-out: HDAC3 %Inhibition(10µM)
# recombinant human HDAC3, sequence (O15379 whole entry): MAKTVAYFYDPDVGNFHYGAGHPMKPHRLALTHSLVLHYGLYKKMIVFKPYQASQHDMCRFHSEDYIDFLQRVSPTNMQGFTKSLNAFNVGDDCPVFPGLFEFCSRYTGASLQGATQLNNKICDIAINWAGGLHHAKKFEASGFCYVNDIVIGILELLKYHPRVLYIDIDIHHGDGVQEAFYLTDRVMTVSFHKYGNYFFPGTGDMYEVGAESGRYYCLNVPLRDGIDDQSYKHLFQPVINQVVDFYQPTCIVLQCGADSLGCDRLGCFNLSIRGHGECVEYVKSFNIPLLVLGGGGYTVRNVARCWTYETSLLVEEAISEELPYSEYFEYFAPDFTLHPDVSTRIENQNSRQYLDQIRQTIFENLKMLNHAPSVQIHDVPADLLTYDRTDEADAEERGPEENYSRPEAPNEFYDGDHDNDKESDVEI
# recombinant human HDAC3, sequence (Q9Y618 395-489 partner limits assumed): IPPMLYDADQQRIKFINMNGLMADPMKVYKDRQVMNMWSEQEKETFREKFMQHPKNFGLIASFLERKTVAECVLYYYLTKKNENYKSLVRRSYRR
# recombinant His-tagged HDAC2, sequence (Q92769 whole entry): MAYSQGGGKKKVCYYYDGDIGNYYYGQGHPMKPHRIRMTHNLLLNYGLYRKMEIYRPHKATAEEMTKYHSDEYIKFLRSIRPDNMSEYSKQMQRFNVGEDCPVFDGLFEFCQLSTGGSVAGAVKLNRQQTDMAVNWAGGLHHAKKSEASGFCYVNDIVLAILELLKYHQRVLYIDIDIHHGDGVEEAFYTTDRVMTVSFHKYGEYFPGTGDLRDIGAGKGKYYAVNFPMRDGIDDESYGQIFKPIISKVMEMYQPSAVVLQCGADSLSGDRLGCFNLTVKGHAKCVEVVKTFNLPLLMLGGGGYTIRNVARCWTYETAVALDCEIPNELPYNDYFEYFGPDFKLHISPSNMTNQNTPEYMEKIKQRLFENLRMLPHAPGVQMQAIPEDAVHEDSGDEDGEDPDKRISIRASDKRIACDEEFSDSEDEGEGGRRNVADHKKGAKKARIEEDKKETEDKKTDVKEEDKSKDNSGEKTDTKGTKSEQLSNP
Compound,biotinylation of HDAC2 in competition with Trichostatin A [1],inhibition at 10 µM (recombinant human HDAC3)
[N-]=[N+]=NCCC(=O)Nc1ccc(C(=O)Nc2cc(N=[N+]=[N-])ccc2N)cc1 [1g],slightly less pronounced,–
"O=C(CCCCCCC(=O)Nc1ccccc1)NO [SAHA, suberoyl anilide hydroxamic acid]",–,100%
